# In paper PMC4747952, “Development of TASP0410457 (TASP457), a novel dihydroquinolinone derivative as a PET radioligand for central histamine H3 receptors” (EJNMMI Research, 2016):
# Assays:
# rat H3R = target: T1, rat H3R (Rattus norvegicus, UniProt Q9QYN8); assay: In vitro binding to H3Rs, rat cerebral cortex membranes, [^3H]N-α-methylhistamine; conditions: 1 nM [^3H]N-α-methylhistamine, geometric mean, n = 3, read-out: Affinity for H3Rs Rat, IC50
# T1 construct: Rat cerebral cortex and monkey frontal cortex were dissected; from tissue; host or cells: rat cerebral cortex membranes
# T1 sequence (Q9QYN8 whole entry): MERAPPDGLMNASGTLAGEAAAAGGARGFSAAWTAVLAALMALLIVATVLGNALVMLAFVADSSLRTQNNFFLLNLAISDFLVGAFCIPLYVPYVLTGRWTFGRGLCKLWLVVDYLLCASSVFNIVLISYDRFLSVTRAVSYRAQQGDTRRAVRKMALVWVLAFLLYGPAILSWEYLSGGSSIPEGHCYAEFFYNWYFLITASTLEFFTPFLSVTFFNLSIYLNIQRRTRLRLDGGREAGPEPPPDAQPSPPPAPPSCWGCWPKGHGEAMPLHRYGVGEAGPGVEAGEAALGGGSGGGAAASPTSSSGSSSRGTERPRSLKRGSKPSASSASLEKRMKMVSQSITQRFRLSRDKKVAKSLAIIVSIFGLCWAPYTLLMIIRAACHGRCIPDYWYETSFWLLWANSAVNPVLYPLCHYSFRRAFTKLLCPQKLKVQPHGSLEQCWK
# Description: Rat cerebral cortex and monkey frontal cortex were dissected, homogenized with 50 mM Tris buffer (pH 7.4) containing 5 mM EDTA and Protease Inhibitor Cocktail Tablets (Roche Diagnostics, Indianapolis, IN) and centrifuged at 48,000×g for 15 min at 4 °C. The pellets were then suspended in binding buffer (50 mM Tris containing 5 mM EDTA, pH 7.4) and stored at −80 °C as membrane preparations.
# The membrane preparations were thawed and incubated in the binding buffer containing 0.1 % bovine serum albumin, 1 nM [^3H]N-α-methylhistamine (PerkinElmer, Waltham, MA) with various concentrations of a dihydroquinolinone derivative (i.e., test compound) at 25 °C for 1 h. The reaction was terminated by rapid filtration through 96-well GF/C filter plates (PerkinElmer) presoaked with 0.5 % polyethyleneimine (Wako, Osaka, Japan). After washes with ice-cold binding buffer, the plates were dried and filled with Microscint-o (PerkinElmer). The radioactivity retained on the filters was counted using a TopCount NXT (PerkinElmer). Total and nonspecific radioligand binding was determined by reaction without and with 10 μM thioperamide and clobenpropit, respectively. The specific radioligand binding was then calculated by subtracting the nonspecific binding from the total binding. The IC50 value for inhibition of the radioligand binding by the test compound was determined using a nonlinear fit of the concentration-response curve for each test compound using SAS 9.2 (SAS Institute Inc., Cary, NC). Data were expressed as the geometric means of IC50 values from three independent experiments run in duplicate.
# Sigma 1 receptor = target: T2, Sigma 1 receptor (Homo sapiens, UniProt Q99720); assay: Sigma 1 receptor binding, [3H]pentazocine; conditions: Jurkat cell membranes; 4 nM [3H]pentazocine; read-out: Off-target binding Sigma 1, IC50
# T2 construct: The membrane preparations were made from Jurkat cell lines; endogenous in cells; host or cells: Jurkat
# T2 sequence (Q99720 whole entry): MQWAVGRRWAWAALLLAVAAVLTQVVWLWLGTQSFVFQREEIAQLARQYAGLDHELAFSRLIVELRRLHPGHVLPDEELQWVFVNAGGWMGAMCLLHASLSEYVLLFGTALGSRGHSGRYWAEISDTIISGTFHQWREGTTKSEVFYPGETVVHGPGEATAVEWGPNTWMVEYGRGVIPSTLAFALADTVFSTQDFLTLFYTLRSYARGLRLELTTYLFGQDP
# Description: H) 6.86 [d, J = 8.67 Hz, 2 H]; MS [ESI/APCI Dual) [Positive) m/z; 381(M+H)+ ) .
# Off-target binding of compounds
# The membrane preparations were made from Jurkat cell lines, and were incubated in sigma 1 binding buffer (0.1% bovine serum albumin in 50 mM Tris, pH7.4) containing 4 nM [3H]pentazocine (PerkinElmer), and serial concentrations of the compound at 25°C for 2.5 h. The reaction was terminated by rapid filtration through a 96-well GF/C filter plate presoaked in 0.5% polyethyleneimine.
# The filters were washed with ice-cold 50 mM Tris (pH7.4) three times, dried, and filled with Microscint-o. The radioactivity retained on the filter was counted using a TopCount NXT. Nonspecific binding was determined as the amount of radioactivity under the above-mentioned conditions in the presence of […] of haloperidol. The IC50 values were determined by nonlinear curve-fitting of the concentration-response data for each compound using Origin version 6.1087 (OriginLab Corporation, […]
# Adrenergic 2c receptor binding
# Human 2c receptor-expressing membrane preparations were purchased from PerkinElmer. The
# [1] = Lipophilicity measurement (Log D); format: physicochemical; conditions: pH 7.4; octanol and phosphate buffer (pH7.4); read-out: Log D7.4
# Description: Lipophilicity measurement
# Log D was determined by partitioning each compound between an octanol and phosphate buffer […]
# each layer using HPLC with ultraviolet (UV) detection.
# Assays for P-glycoprotein-mediated transcellular transport of compounds LLC-GA5-COL300 cells expressing human P-glycoprotein were seeded at a density of 4.5 × 10^5 cells/cm2 onto polycarbonate membrane filters of 12-well cell culture insert plates and cultured at 37°C in a humidified incubator containing 5% CO2 for 3 days. After each cell monolayer was pre-incubated at 37°C for 20 min in Hank’s balanced salt solution containing 10 mM HEPES (HBSS buffer), transcellular transport experiments were initiated by adding the test compound solution to the apical or basal side of the cell culture inserts. HBSS buffer was sampled from the compartment opposite of that spiked with the test compounds at 0.5, 1, 1.5 and 2 h after initiation of the experiments, and concentrations of the test compounds were determined using LC-MS/MS. The apparent permeability coefficient (Papp) of the test compounds was calculated using the following equation:
# Papp= dQ/dt / C0 / A Eq. 1, where dQ/dt represents the rate of permeation of the compounds, C0 is the initial concentration of the test compounds ([…]), and A is the area of the monolayer. The efflux ratio (ER) was defined as […]
# Glutamate AMPA = assay: Off-target binding (Cerep); set-up: unit of the concentration uncertain
# From the text: (§1) Off-target binding of compounds assessed using an in-house assay (M4) and a commercial battery (all others) (Cerep, Celle L'Evescault, France).
# (§2) Concentration % Inhibition Concentration % Inhibition Concentration % Inhibition […]
# (§3) *1α -amino-3-hydroxy-5-methyl-4-isoxazolepropionic acid receptor; *2N-methyl-D-aspartate receptor; *3Strychnine-insensitive glycine-binding module of NMDA receptor; *4Phencyclidine-binding site of NMDA receptor; *5ATP-sensitive potassium channel; *6Voltage-dependent potassium channel; *7small conductance calcium-activated potassium channel; *85-hydroxytryptamine 1A receptor
# [2] = tested on: Glutamate Glycine (Strychnine-insensitive glycine-binding module of NMDA receptor); assay: Off-target binding (Cerep); set-up: unit of the concentration uncertain
# From the text: as §1, §2, §3
# Glutamate NMDA = assay: Off-target binding (Cerep); set-up: unit of the concentration uncertain
# From the text: as §1, §2, §3
# [3] = tested on: Glutamate PCP (Phencyclidine-binding site of NMDA receptor); assay: Off-target binding (Cerep); set-up: unit of the concentration uncertain
# From the text: as §1, §2, §3
# K+ channel KATP = assay: Off-target binding (Cerep); set-up: unit of the concentration uncertain
# From the text: as §1, §2, §3
# K+ channel KV = assay: Off-target binding (Cerep); set-up: unit of the concentration uncertain
# From the text: as §1, §2, §3
# K+ channel SKCa = assay: Off-target binding (Cerep); set-up: unit of the concentration uncertain
# From the text: as §1, §2, §3
# Glutamate Kainate = assay: Off-target binding (Cerep); set-up: unit of the concentration uncertain
# From the text: (§4) Off-target binding of compounds assessed using an in-house assay (M4) and a commercial battery (all
# (§5) others) (Cerep, Celle L'Evescault, France).
# Imidazoline I2 = assay: Off-target binding (Cerep); set-up: unit of the concentration uncertain
# From the text: as §4, §5
# Opioid kappa (KOP) = assay: Off-target binding (Cerep); set-up: unit of the concentration uncertain
# From the text: as §4, §5
# Serotonin 5-HT1B = assay: Off-target binding (Cerep); set-up: unit of the concentration uncertain
# From the text: as §4, §5
# Serotonin 5-HT1D = assay: Off-target binding (Cerep); set-up: unit of the concentration uncertain
# From the text: as §4, §5
# [4] = Concentration 1 (unit uncertain)
# [5] = Concentration 10 (unit uncertain)
IC50 (rat H3R),IC50 (Sigma 1 receptor),logD [1],% Inhibition (Glutamate AMPA; [5]),"% Inhibition [2, 5]",% Inhibition (Glutamate NMDA; [5]),"% Inhibition [3, 5]",% Inhibition (K+ channel KATP; [5]),% Inhibition (K+ channel KV; [5]),% Inhibition (K+ channel SKCa; [5]),% Inhibition (Glutamate Kainate; [5]),% Inhibition (Imidazoline I2; [5]),% Inhibition (Opioid kappa (KOP); [5]),% Inhibition (Serotonin 5-HT1B; [5]),% Inhibition (Serotonin 5-HT1D; [5]),SMILES,other results
0.783 nM,257 nM,2.22,,,,,,,,,,,,,"COc1ccc(N2C(=O)CCc3cc(OC4CCN(C5CCC5)CC4)ccc32)cc1 [TASP0434988, 6-[(1-cyclobutylpiperidin-4-yl)oxy]-1-(4-methoxyphenyl)-3,4-dihydroquinolin-2(1H)-one]","% Inhibition (Glutamate AMPA; [4]): 0%; % Inhibition [2, 4]: -8%; % Inhibition (Glutamate NMDA; [4]): -7%; % Inhibition [3, 4]: 9%; % Inhibition (K+ channel KATP; [4]): -4%; % Inhibition (K+ channel KV; [4]): -1%; % Inhibition (K+ channel SKCa; [4]): -2%; % Inhibition (Glutamate Kainate; [4]): 4%; % Inhibition (Imidazoline I2; [4]): 16%; % Inhibition (Opioid kappa (KOP); [4]): -12%; % Inhibition (Serotonin 5-HT1B; [4]): 3%; % Inhibition (Serotonin 5-HT1D; [4]): -12%"
2.74 nM,167 nM,1.36,-18%,12%,-2%,-2%,22%,-15%,7%,-11%,23%,11%,-25%,5%,"COc1ccc(N2C(=O)CCc3cc(OCCCN4CCC[C@H]4C)ccc32)cc1 [TASP0390136, 1-(4-methoxyphenyl)-6-{3-[(2R)-2-methylpyrrolidin-1-yl]propoxy}-3,4-dihydroquinolin-2(1H)-one]",
2.34 nM,379 nM,1.79,1%,-5%,11%,-2%,5%,-11%,-1%,-12%,1%,-6%,25%,17%,"COc1ccc(N2C(=O)CCc3cc(OC4CCN(C5CCC5)CC4)ccc32)cn1 [TASP0410457, 6-[(1-Cyclobutylpiperidin-4-yl)oxy]-1-(6-methoxypyridin-3-yl)-3,4-dihydroquinolin-2(1H)-one]",
